Source: patent EP4545548B1, “INSECT NEUROPEPTIDES” (Solasta Bio Limited, priority 2023, dated 2025)
Where a SMILES comes first, the peptide text is derived from it. [ ]: non-standard residue; d: D form. pGlu = O=C1CC[C@@H](C(=O)O)N1

System: bees
Experiment: Bee oral toxicity test adapted from OECD Test No. 247 (Bumblebee, Acute Oral Toxicity Test)
Assay type: in vivo
Conditions: % survival after 96 hours, compared to Imidacloprid, Figure 9
Experimental: Bee oral testing protocol was carried out adapted from OECD Test No. 247: Bumblebee, Acute Oral Toxicity Test. The toxicity of SB-P-47 was compared with a negative control of sucrose or vehicle, and with a current commercial insecticide Imidacloprid.

SMILES: CC[C@H](C)[C@H](NC(=O)[C@H](C)NC(=O)[C@@H]1CCC(=O)N1)C(=O)N[C@@H](CCSC)C(=O)N[C@@H](C)C(=O)N[C@@H](CCCNC(=N)N)C(=O)N1CCC[C@H]1C(=O)N[C@@H](CCC(N)=O)C(=O)N[C@H](C(=O)N1CCC[C@H]1C(=O)N[C@@H](CCCNC(=N)N)C(=O)N[C@@H](CC(C)C)C(N)=O)C(C)C [SB-P-47, [Pyr]-AIMARPQVPRL-[NH2]] ([pGlu]AIMARPQVPRL-NH2)
- toxicity to key pollinator species such as bees: far lower toxicity
